We go through one compound from ChEMBL document CHEMBL5247647, “Phenothiazine-Based LSD1 Inhibitor Promotes T-Cell Killing Response of Gastric Cancer Cells” (J Med Chem, 2023).

The target of series [1] is T1, Lysine-specific histone demethylase 2 (Homo sapiens) (UniProt Q8NB78).
T1 sequence (whole entry): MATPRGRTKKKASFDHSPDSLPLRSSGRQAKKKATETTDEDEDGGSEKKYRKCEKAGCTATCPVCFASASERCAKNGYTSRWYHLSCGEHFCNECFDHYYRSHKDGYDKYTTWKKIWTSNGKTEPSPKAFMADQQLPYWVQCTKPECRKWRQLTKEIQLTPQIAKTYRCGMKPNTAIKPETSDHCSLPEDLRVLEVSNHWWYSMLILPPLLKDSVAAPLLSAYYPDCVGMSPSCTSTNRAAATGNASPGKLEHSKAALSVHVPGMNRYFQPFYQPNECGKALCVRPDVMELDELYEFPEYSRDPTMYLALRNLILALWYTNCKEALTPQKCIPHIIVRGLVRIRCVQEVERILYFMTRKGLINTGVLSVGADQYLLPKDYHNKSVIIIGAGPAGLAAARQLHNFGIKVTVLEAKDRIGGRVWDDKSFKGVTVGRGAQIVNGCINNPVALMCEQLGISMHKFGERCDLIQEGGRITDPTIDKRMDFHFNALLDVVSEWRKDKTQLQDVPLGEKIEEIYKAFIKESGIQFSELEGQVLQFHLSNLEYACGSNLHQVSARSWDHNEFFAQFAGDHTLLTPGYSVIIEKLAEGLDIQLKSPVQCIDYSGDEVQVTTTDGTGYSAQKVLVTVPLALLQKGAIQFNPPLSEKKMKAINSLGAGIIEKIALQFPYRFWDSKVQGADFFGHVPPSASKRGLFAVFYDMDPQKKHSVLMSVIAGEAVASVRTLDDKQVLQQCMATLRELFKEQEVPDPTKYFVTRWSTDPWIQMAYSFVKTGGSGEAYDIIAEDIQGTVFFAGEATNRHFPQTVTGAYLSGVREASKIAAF
The experiment in a line: Inhibition of recombinant LSD2 (unknown origin) at 10 uM.

The target of another series is T2, MAO-B (Homo sapiens, UniProt P27338).
T2 sequence (P27338 whole entry): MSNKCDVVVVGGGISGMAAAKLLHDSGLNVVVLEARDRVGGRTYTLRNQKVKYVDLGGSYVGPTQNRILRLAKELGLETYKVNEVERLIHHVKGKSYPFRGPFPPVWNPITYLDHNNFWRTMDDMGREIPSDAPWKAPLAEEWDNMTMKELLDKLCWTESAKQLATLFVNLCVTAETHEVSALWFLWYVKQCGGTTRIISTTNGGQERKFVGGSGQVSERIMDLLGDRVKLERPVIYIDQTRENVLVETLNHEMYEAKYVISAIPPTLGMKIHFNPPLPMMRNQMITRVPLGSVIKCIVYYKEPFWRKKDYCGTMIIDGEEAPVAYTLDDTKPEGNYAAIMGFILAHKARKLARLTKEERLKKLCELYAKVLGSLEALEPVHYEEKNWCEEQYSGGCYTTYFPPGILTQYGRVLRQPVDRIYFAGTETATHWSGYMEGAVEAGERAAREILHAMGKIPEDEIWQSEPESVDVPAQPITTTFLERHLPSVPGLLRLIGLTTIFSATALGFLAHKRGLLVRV
Put plainly: Inhibition of recombinant human MAO-B at 10 uM.

Series [2] has as its target T3, Lysine-specific histone demethylase 1A (Homo sapiens, UniProt O60341). Put plainly: Inhibition of human LSD1 in human BGC-823 cells assessed as inhibition of H3K4me2 demethylation at 5 to 20 uM incubated for 5 days by Western blot anlaysis. Format: cell-based. Particulars: dose 5-20 µM, time 5.0 day. (In western blotting, separated proteins are transferred to a membrane and probed.)

Series [3] deals with T3, Lysine-specific histone demethylase 1A. Put plainly: Inhibition of human LSD1 in human BGC-823 cells assessed as inhibition of H3K4me3 demethylation at 5 to 20 uM incubated for 5 days by Western blot anlaysis. The series is classed as cell-based. The conditions noted are these: dose 5-20 µM, time 5.0 day.
Series [4] deals with BGC-823. The experiment in a line: Downregulation of PD-L1 expression in human LSD1 knockout BGC-823 cells at 5 to 20 uM incubated for 5 days by Western blot anlaysis. Particulars: dose 5-20 µM, time 5.0 day. The series is classed as functional, cell-based.
Series [5] deals with BGC-823. The experiment in a line: Downregulation of PD-L1 expression in human LSD1 knockout BGC-823 cells transfected with […] K661A mutant plasmid at 20 uM incubated for 5 days by Western blot anlaysis. The series is classed as functional, cell-based. The conditions noted are these: time 5.0 day.
Series [6] addresses Programmed cell death protein 1/Programmed cell death 1 ligand 1 (Homo sapiens) (UniProt Q15116+Q9NZQ7). The experiment in a line: Inhibition of PD-L1/PD-1 interaction in human BGC-823 cells assessed as decrease in binding of PD-1 to cell membrane at 5 to 20 uM incubated for 5 days followed by recombinant PD-1-Fc protein addition by confocal microscopy analysis. Format: cell-based. Particulars: dose 5-20 µM, time 5.0 day.

For series [7], the system named is BGC-823. Put plainly: Anticancer activity against human BGC-823 cells assessed as increase in CD3/CD28 activated T-cell killing response at 5 to 20 uM incubated for 5 days by DAPI staining based assay. The series is classed as functional. Particulars: dose 5-20 µM, time 5.0 day.
In series [8] the test system is BGC-823. Put plainly: Anticancer activity against human BGC-823 cells assessed as increase in CD3/CD28 activated T-cell killing response by measuring IFNgamma level at 5 to 20 uM incubated for 5 days by Sandwich ELISA. The series is classed as functional, cell-based. The conditions noted are these: dose 5-20 µM, time 5.0 day. For orientation: ELISA stands for enzyme-linked immunosorbent assay.

Series [9] relates to MFC. Put plainly: Antitumor activity against mouse MFC cells xenografted in 615 mouse assessed as decrease in tumor weight at 10 to 50 mg/kg, po for 14 days. Format: functional, organism-based. Particulars: dose 10-50 mg/kg, time 14.0 day.
Series [10] has as its system MFC. Put plainly: Antitumor activity against mouse MFC cells xenografted in 615 mouse assessed as decrease in Ki67 expression in tumor at 10 to 50 mg/kg, po for 14 days by immunohistochemistry. Format: functional, organism-based. Particulars: dose 10-50 mg/kg, time 14.0 day.
Series [11] can be described thus: Toxicity against 615 mouse xenografted with mouse MFC cells in assessed as body weight change in tumor at 10 to 50 mg/kg, po for 14 days. The series is classed as organism-based. Particulars: in vivo, 336 h, dose 10-50 mg/kg, time 14 day.
The nature of series [12]: Toxicity against 615 mouse xenografted with mouse MFC cells in assessed as pathological changes in heart at 10 to 50 mg/kg, po for 14 days by Hematoxylin and Eosin staining based microscopic analysis. The series is classed as organism-based. The conditions noted are these: in vivo, 336 h, dose 10-50 mg/kg, time 14 day.
Series [13] can be described thus: Toxicity against 615 mouse xenografted with mouse MFC cells in assessed as pathological changes in liver at 10 to 50 mg/kg, po for 14 days by Hematoxylin and Eosin staining based microscopic analysis. Format: organism-based. The conditions noted are these: in vivo, 336 h, dose 10-50 mg/kg, time 14 day.
The nature of series [14]: Toxicity against 615 mouse xenografted with mouse MFC cells in assessed as pathological changes in lungs at 10 to 50 mg/kg, po for 14 days by Hematoxylin and Eosin staining based microscopic analysis. Format: organism-based. The conditions noted are these: in vivo, 336 h, dose 10-50 mg/kg, time 14 day.
The subject of series [15] is MFC. The experiment in a line: Antitumor activity against mouse MFC cells xenografted in 615 mouse assessed as decrease in intratumoral PD-L1 expression at 10 to 50 mg/kg, po for 14 days by Western blot analysis. The series is classed as functional, organism-based. Particulars: dose 10-50 mg/kg, time 14.0 day.
Series [16] deals with MFC. The experiment in a line: Antitumor activity against mouse MFC cells xenografted in 615 mouse assessed as increase in IFNgamma expression level in tumor at 10 to 50 mg/kg, po for 14 days by ELISA. The series is classed as functional, organism-based. Particulars: dose 10-50 mg/kg, time 14.0 day.
Series [17] relates to MFC. The experiment in a line: Antitumor activity against mouse MFC cells xenografted in 615 mouse assessed as increase in IL-2 mRNA expression level in tumor at 10 to 50 mg/kg, po for 14 days. The series is classed as functional, organism-based. The conditions noted are these: dose 10-50 mg/kg, time 14.0 day.
Series [18] relates to MFC. The experiment in a line: Antitumor activity against mouse MFC cells xenografted in 615 mouse assessed as increase in IFNgamma mRNA expression level in tumor at 10 to 50 mg/kg, po for 14 days. The conditions noted are these: dose 10-50 mg/kg, time 14.0 day. Format: functional, organism-based.

Molecules are shown by their SMILES. The source made the active and inactive calls. No cut-off for these calls is given here. Bounds are passed on as bounds.

`c1ccc2c(c1)Sc1ccccc1N2CCN1CCOCC1`: the inhibition (commonly how much of the control response was suppressed) in [1] is greater than 10%; in series [6], “Dose-Dependent Effect”. Also, on MAO-B, the inhibition at 10 µM was less than 10%. Further, the inhibition entry in [2] was “Active”. In [3], the inhibition entry was “inactive”. In addition, the outcome in the series with BGC-823 [4] and in the series with BGC-823 [5] was inactive. Moreover, the Activity entry in the series with BGC-823 [7] was “Dose-Dependent Effect”; in [11], “Non-Toxic”; in [12], “Non-Toxic”; in series [13], “Non-Toxic”; in [14], “Non-Toxic”; with MFC [15], “Dose-Dependent Effect”. The outcome with BGC-823 [8], in the series with MFC [9], in the series on MFC [10], in the series on MFC [16], in the series with MFC [17] and with MFC [18] was Active.
